Reference: US20230332103A1, “Methods and Compositions for Generating Human Forebrain Neural Progenitor Cells and for Maturation Thereof to Parvalbumin+ Interneurons” (Trailhead Biosystems Inc., priority 2021, published 2023)

Legend:
[1] = tested on: stage 4 neural stem cells; test: HD-DoE 8-factor experiment for stage 5 recipe (Forskolin, Arachidonic acid, VPA, BDNF, BT13, O-LPA, GW7646, Sodium pyruvate), optimized for PVALB; assay type: cell-based, human; details: for impact on expression of PVALB: dynamic profile analysis, FIG. 26; for factor contribution on expression of PVALB: positive, model optimized for maximum expression of PVALB, FIG. 25
Method: To further guide the differentiation of forebrain-committed neural stem cells to PVALB interneuron cells, an additional HD-DoE experiment was performed for 3 days on cells that were treated with stage 1 to stage 4 media for total of 12 days prior to start of the experiment. This experiment included 8 effectors, Forskolin, Arachidonic acid, VPA, BDNF, BT13, O-LPA, GW7646, and Sodium pyruvate. In this model, we focused on maximum expression of PVALB gene expressed in PVALB (+) interneurons (Nahar et al. (2021) Front. Psych. 12:679960). When the model was optimized for maximum expression of PVALB, Forskolin, GW7646, Sodium Pyruvate had the highest factor contributions, 3.14, 27.2, and 17.1 respectively (FIG. 25).
So, it was excluded in the recipe.

[2] = tested on: stage 4 neural stem cells; test: factor criticality analysis of stage 5 recipe; assay type: cell-based, human; details: FIG. 28-30
Method: To assess the impact of elimination of each validated factor, we again used dynamic profile analysis and compared the expression level of genes of interest in the absence of each finalized factor while others are present.
In the stage 5 recipe, each of seven finalized factors were removed while other factors were kept present and expression levels of PVALB and SST were assessed compared to the presence of all seven factors. […] 2-phospho-L-ascorbic acid, BDNF, IGF-1 were included in the stage 5 recipe (FIG. 28). […] Others were also found to increase the expression of somatostatin that was SST interneuron marker. So, they are excluded from the recipe and N2 was included in the stage 5 recipe (FIG. 29). […] Sodium pyruvate was included in the stage 5 recipe (FIG. 30).

SMILES: CCN(CC)S(=O)(=O)c1ccc(OC)c(N2CCN(C(=O)c3ccc(F)cc3C(F)(F)F)CC2)c1 [BT13]
- impact on expression of PVALB [1]: significant negative impact

SMILES: C=C[C@@]1(C)CC(=O)[C@]2(O)[C@@]3(C)[C@@H](O)CCC(C)(C)[C@@H]3[C@H](O)[C@H](OC(C)=O)[C@@]2(C)O1 [Forskolin]
- factor contribution on expression of PVALB [1]: 3.14

SMILES: CC(=O)C(=O)[O-].[Na+] [Sodium pyruvate]
- impact on expression of PVALB [1]: significant effect
- impact on expression of PVALB ([1]; listed as sodium pyruvate): positive impact
- factor contribution on expression of PVALB [1]: 17.1
- contribution to expression of PVALB (Parvalbumin) [2]: contribute to PVALB expression
